Entries after “also recorded” stand apart in the source; their conditions may differ.
What was measured:
[1] = tested on: DBA/2J mice, bleomycin-induced skin fibrosis; assay: Bleomycin-induced dermal fibrosis mouse model (preventive treatment); format: in vivo; conditions: for reduction of collagen content in lesional skin (hydroxyproline assay): compared to bleomycin-treated animals
Method: The selective JNK inhibitor Compound JNKi-1 was tested in a bleomycin-induced dermal fibrosis mouse model, which is considered to represent the early and inflammatory stages of systemic sclerosis (Akhmetshina A, Venalis P, Dees C, Busch N, Zwerina J, Schett G, Distler O, Distler J H, Treatment with imatinib prevents fibrosis in different preclinical models of systemic sclerosis and induces regression of established fibrosis, Arthritis Rheum. 2009; 60(1):219-24). […] In animal models it will similarly induce injury and fibrosis at the site of delivery.
Male and female DBA/2J mice were used. Mice were fed a standard diet with water ad libitum. The room temperature was kept constant at 22° C. with a humidity of 60%.
Compound JNKi-1 was dissolved in 0.5% carboxymethylcellulose (CMC)/0.25% Tween 80 in water. Bleomycin was dissolved in 0.9% sodium chloride (NaCl) at a concentration of 0.5 mg/mL in a total volume of 100 μL. The positive control compound Imatinib mesylate was dissolved in 0.9% NaCl at a concentration of 50 mg/kg/day in a total volume of 100 μL.
Two different dose levels of the JNK-inhibitor Compound JNKi-1 (50 mg/kg and 150 mg/kg, administered twice daily) were used to analyze the anti-fibrotic activity in a mouse model of bleomycin-induced skin fibrosis. […] DBA/2J mice (n=5/sex/group) were assigned to one of five treatment groups: • Control group: 0.5% CMC/0.25% Tween 80 in water orally (PO) twice daily (BID) and subcutaneous injections of 100 μL 0.9% NaCl. • Untreated bleomycin group: intradermal injection of bleomycin and 0.5% CMC/0.25% Tween 80 in water orally BID. • 50 mg/kg Compound JNKi-1: intradermal injection of bleomycin and Compound JNKi-1 orally BID. • 150 mg/kg Compound JNKi-1: intradermal injection of bleomycin and Compound JNKi-1 orally BID. • Positive control group: intradermal injection of bleomycin and imatinib 50 mg/kg/day administered intraperitoneally (IP).
Localized dermal fibrosis was induced by injection of bleomycin every other day for 3 weeks in defined areas of the upper back. Compound JNKi-1 or imatinib was administrated starting from the first dose of bleomycin.
The dermal thickness was determined by staining with hematoxylin and eosin (H & E). The activated fibroblasts (myofibroblasts) at the fibrotic lesions were quantified by immunohistochemistry (IHC) for alpha smooth muscle actin (α-SMA). Collagen concentration in lesional skin was analyzed by hydroxyproline assay. Data are expressed as mean±standard error of the mean (SEM). SPSS17.0 software and the Mann-Whitney-U-test were used for statistical analyses. A p-value of less than 0.05 was considered statistically significant.

[2] = tested on: fibroblasts from SSc patients; assay: MTT assay, SSc fibroblast viability; format: cell-based, human; conditions: 1 μM, 24-hr incubation
Method: (§1) Dermal fibroblasts from two SSc patients were treated for 24 hours (hr) with Compound JNKi-1 at concentrations from 0.1 μM to 10 μM (0.5% DMSO/99.5% cell culture media). To study the effect of Compound JNKi-1 on growth factor-induced collagen expression, recombinant transforming growth factor beta (TGF-β) (final concentration of 10 ng/mL) or platelet-derived growth factor-BB (PDGF-BB) (final concentration of 40 ng/mL) were added to cells 2 hr after the addition of JNK-inhibitor Compound JNKi-1 for 24 hr. The expression of collagen proteins was analyzed by SirCol assay. The messenger ribonucleic acid (mRNA) levels of extracellular proteins were measured by real-time polymerase chain reaction (PCR). The β-actin mRNA was used as internal control for the measurement of Collagen 1a1 mRNA using PCR. Fibroblast proliferation assay was performed in the presence or absence of 1 μM Compound JNKi-1 for 24 hr with the (3-(4,5-Dimethylthiazol-2-yl)-2,5-diphenyltetrazolium bromide) (MTT) assay.
The isolation of fibroblasts from human SSc patients and culture conditions used in this study have been previously described (Akhmetshina A, Dees C, Pileckyte M, Maurer B, Axmann R, Jüngel A, et al., Dual inhibition of c-abl and PDGF receptor signaling by dasatinib and nilotinib for the treatment of dermal fibrosis, FASEB J. 2008; 22(7):2214-22). […] Data are expressed as mean±standard error of the mean (SEM).

[3] = tested on: fibroblasts from SSc patients; assay: TGF-β and PDGF-induced total collagen secretion (SirCol assay); format: cell-based, human; conditions: 1 μM
Method: as §1
The isolation of fibroblasts from human SSc patients and culture conditions used in this study have been previously described (Akhmetshina A, Dees C, Pileckyte M, Maurer B, Axmann R, Jüngel A, et al., Dual inhibition of c-abl and PDGF receptor signaling by dasatinib and nilotinib for the treatment of dermal fibrosis, FASEB J. 2008; 22(7):2214-22). […] Data are expressed as mean±standard error of the mean (SEM). […]

## O[C@H]1CC[C@H](Nc2ncc3nc(Nc4c(F)cc(F)cc4F)n([C@H]4CCOC4)c3n2)CC1 [JNKi-1, 4-((9-((3S)-tetrahydro-3-furanyl)-8-((2,4,6-trifluorophenyl)amino)-9H-purin-2-yl)amino)-trans-cyclohexanol]
[1]; 50 mg/kg orally BID, 3 weeks bleomycin, mean±SEM
  decrease of dermal thickness: 24%±5%
[1]; 50 mg/kg orally BID
  reduction of collagen content in lesional skin (hydroxyproline assay): 29%±11%
[1]; 50 mg/kg orally BID, mean±SEM
  reduction of number of myofibroblasts (α-SMA IHC): 80%±10%
[1]; 150 mg/kg orally BID
  reduction of collagen content in lesional skin (hydroxyproline assay): 47%±9%
[1]; 150 mg/kg orally BID, mean±SEM
  reduction of number of myofibroblasts (α-SMA IHC): 101%±9%
[1]; 50 and 150 mg/kg orally BID
  collagen content in lesional skin (in words): reduced dose-dependently
  dermal thickness / development of fibrosis (in words): decreased dose-dependently; also recorded: reduced dose dependently; also recorded: significantly ameliorated; also recorded: dose-dependently inhibited dermal thickness
  myofibroblasts in lesional skin (in words): significantly decreased; also recorded: completely prevented
[2]
  cytotoxic effect / cell viability (MTT): does not exert its inhibitory effects indirectly by reducing cell viability; also recorded: no cytotoxic effect
[3]
  TGF-β and PDGF-induced collagen secretion: modestly inhibited

From patent publication US8680076B2, “Methods of treatment, improvement and prevention using haloaryl substituted aminopurines” (Signal Pharmaceuticals, LLC, priority 2010, dated 2014)
